Laboratory results as given in US20260217699A1, “BERBERINE TAUROURSODEOXYCHOLATE COMPOSITIONS AND METHODS THEREOF” (SHENZHEN HIGHTIDE BIOPHARMACEUTICAL LTD., priority 2023, published 2026).

What was measured:
[1] = test system: 6-OHDA Stereotactic Injection Induced PD Rats; assay: Rotarod test; type: in vivo, Sprague-Dawley rats; conditions: for Time on the Rod: Mean ± SEM, N=10, Model 63.250 ± 9.871
From the text: The rats were respiratory anesthetized with isoflurane; the head was fixed to ensure that there was no movement and the brain surface was adjusted to be flat; the head was shaved, and a skin incision was made along the sagittal suture to expose the fontanel point; the glass electrode was positioned to the fontanel, and the axes of the coordinate monitor were zeroed to locate the brain areas of the SN and the Str based on the coordinates, in which the SN: AP=−5.0 mm; ML=−1.9 mm; DV=−8.5 mm, and Str: AP=+0.5 mm; ML=−3.0 mm; DV=−6.0 mm. […]; slowly inserted the needle into the localized area of SN and Str, waited for 10 min, and then administered the drug of 6-OHDA at a rate of […] for 10 min, and each animal was given […] of each of SN and Str area, and then the needle was slowly withdrawn after the drug was administered for 10 min, and the PD rat model was established.
The rotation speed of the rotary rod fatigue meter was set to 20 rpm/min with the test time of 5 min. The animals were placed on the rotating rod in batches for testing, and the time each animal spent on the rod was recorded to evaluate the motor coordination ability of the rats. Information on the rotarod test can also be found in the literature (Bohlen, et al. 2009 J Neurosci Methods 178(1):10-4).
In this study, 16 Sprague Dawley (SD) male rats 180g-220g were used to establish a PD model by stereotactic unilateral injection of 6-OHDA in the substantia nigra (SN) and striatum (Str) brain areas after one week of acclimatization feeding and were randomly divided into 2 groups of 8 rats each. One group was dosed with the test compound BTUDC 500 mg/kg (QD, p.o.) and the other group was the Model group, which was given an equal volume of 0.5% CMC-Na (QD, p.o.) as the test compound group. […]
Experimental Methods: Seventy 180-220g SD male rats were selected and fed for one week for accumulation, and the PD model was established by stereotactic unilateral injection of 6-OHDA in the Substantia Nigra (SN) and Striatum (Str) regions and were randomly divided into five groups according to their body weights including Madopar group (Madopar, 50 mg/kg), BTUDC-L group (BTUDC, 100 mg/kg), BTUDC-M group (BTUDC, 500 mg/kg), and BTUDC-H group (BTUDC, 1000 mg/kg), with 10 animals in each group. […] At the end of the administration, the test articles were evaluated for tolerance in this model and in behavioral apomorphine—asymmetric rotation test, beam test, rotarod test and grip strength test, immunofluorescence staining (TH, Ibal), and cerebrospinal fluid inflammatory factor assays to evaluate the pharmacodynamic effects of the test articles. […]

[2] = test system: 6-OHDA Stereotactic Injection Induced PD Rats; assay: Tolerability / general condition observation in PD rat model; type: in vivo, Sprague-Dawley rats
Experimental: In this study, 16 Sprague Dawley (SD) male rats 180g-220g were used to establish a PD model by stereotactic unilateral injection of 6-OHDA in the substantia nigra (SN) and striatum (Str) brain areas after one week of acclimatization feeding and were randomly divided into 2 groups of 8 rats each. One group was dosed with the test compound BTUDC 500 mg/kg (QD, p.o.) and the other group was the Model group, which was given an equal volume of 0.5% CMC-Na (QD, p.o.) as the test compound group. The animals were administered once a day for 21 consecutive days starting from the second day after modeling to evaluate the tolerability and therapeutic potential of BTUDC in the 6-OHDA PD model.
The body weight and food intake of the rats were collected and recorded every day, and the cage side observation for the animals was carried out.
Experimental Methods: Seventy 180-220g SD male rats were selected and fed for one week for accumulation, and the PD model was established by stereotactic unilateral injection of 6-OHDA in the Substantia Nigra (SN) and Striatum (Str) regions and were randomly divided into five groups according to their body weights including Madopar group (Madopar, 50 mg/kg), BTUDC-L group (BTUDC, 100 mg/kg), BTUDC-M group (BTUDC, 500 mg/kg), and BTUDC-H group (BTUDC, 1000 mg/kg), with 10 animals in each group. Another 10 SD male rats were taken for sham operation (only 4 μL of 0.9% NS containing 0.02% ascorbic acid was given to the SN and Str brain regions during modeling) as the Sham group. The drug was administered by gavage once daily continuously for 21 days starting on the second day of modeling (first day of dosing, D1). General observation was made during the dosing period. At the end of the administration, the test articles were evaluated for tolerance in this model and in behavioral apomorphine—asymmetric rotation test, beam test, rotarod test and grip strength test, immunofluorescence staining (TH, Ibal), and cerebrospinal fluid inflammatory factor assays to evaluate the pharmacodynamic effects of the test articles. Inflammatory factors tested included interleukin 6 (1L-6), inflammatory factor […], Tumor Necrosis Factor alpha (TNF-α), inflammatory assays were done in a total of 4 groups included Sham, Model, Madopar and BTUDC-H groups.
Dosing volume: 10 mL/kg • 1. General observation: During the period of drug administration, body weight, food intake test and cage side observation were conducted […]. • 2. Behavioral test: After 21 days of administration, behavioral test was carried out on the following day. • 3. Histochemical test: After the behavioral test, the cerebrospinal fluid from each animal (N=10) was collected, centrifuged to collect the supernatant, and stored at −80° C. for Elisa test (IL-6, IL-1β, TNF-α), then the animals in each group (N=5) were randomly selected to take the modeling side of the striatum for the detection of neurotransmitters, and the rest of them (N=5) were subjected to cardiac perfusion, which was performed by the process of perfusion, fixation, sedimentation and slicing for immunofluorescence staining and photographed, and the number or area of signals were counted by ImageJ software. • 4. Data analysis: After the data were summarized and counted, they were analyzed using SPSS data statistics software (one-way ANOVA, p<0.05 was considered a significant difference), and images were plotted according to the results of SPSS analysis using Graph Pad software. […]

[3] = up to 1000 mg/kg p.o. Qd 21 days

COc1ccc2cc3[n+](cc2c1OC)CCc1cc2c(cc1-3)OCO2.C[C@H](CCC(=O)NCCS(=O)(=O)[O-])[C@H]1CC[C@H]2[C@@H]3[C@@H](O)C[C@@H]4C[C@H](O)CC[C@]4(C)[C@H]3CC[C@]12C [BTUDC, Berberine tauroursodeoxycholate]
Rotarod Test Rod time ([1]; 500 mg/kg QD p.o. 21 days, Model 44.063 ± 4.6049, P < 0.001 vs Model): 252.413 ± 14.4032 s
Time on the Rod ([1]; BTUDC-H 1000 mg/kg p.o. Qd 21 days, p<0.001 vs Model): 172.625 ± 17.355 s
Time on the Rod ([1]; BTUDC-L 100 mg/kg p.o. Qd 21 days, no significance mark): 103.220 ± 5.806 s
Time on the Rod ([1]; BTUDC-M 500 mg/kg p.o. Qd 21 days, p<0.001 vs Model): 148.070 ± 21.760 s
tolerability in the PD rat model ([2]; 500 mg/kg QD p.o. 21 days): well tolerated
mortality, moribundity, abnormal animal state ([2]; 500 mg/kg QD p.o. 21 days, vs model group): no Test Compound-related mortality or moribundity nor abnormal animal state
body weight and food intake vs model control group ([2]; 500 mg/kg QD p.o. 21 days, whole study period): no obvious differences
body weight growth or food intake compared with other groups of animals [2, 3]: no obvious abnormalities
tolerability [2, 3]: well tolerated
